Results published in patent US12486234B2, “PAPD5 inhibitors and methods of use thereof” (Children's Medical Center Corporation, priority 2019, dated 2025).

Tests used:
[1] = molecular target: T1, PAPD5 (Homo sapiens, UniProt Q8NDF8); experiment: RNA oligo-adenylation (oligo-extension) inhibition assay with recombinant PAPD5; format: biochemical; design: key: minimal activity (0); range from minimal activity (0) to that of compound 1 (+++); range from minimal activity (0) to that of compound 1 (+++); that of compound 1 (+++); conditions: qualitative measure of RNA oligo-extension inhibition, relative to compound 1
T1 construct: made in house
Method: An in vitro RNA polyadenylation assay using recombinant PAPD5, ATP and an oligonucleotide substrate utilized the following phenomenon: ATP utilization by PAPD5 reads out as a decreased luminescence signal produced by luciferase (KinaseGlo, Promega, Madison, WI).
(§1) Qualitative measure of RNA oligo-extension inhibition for the tested compounds, expressed as range from minimal activity (0) to that of compound 1 (+++), and results of a DSF binding assay (shown as shift in temperature at 100 μM of the compound) are shown in the Table 2 below.

[2] = molecular target: T1, PAPD5; experiment: DSF binding assay (shift in temperature); conditions: shift in temperature at 100 μM of the compound
Method: as §1

T1 sequence (Q8NDF8 68-698 isoform Q8NDF8-5 limits assumed): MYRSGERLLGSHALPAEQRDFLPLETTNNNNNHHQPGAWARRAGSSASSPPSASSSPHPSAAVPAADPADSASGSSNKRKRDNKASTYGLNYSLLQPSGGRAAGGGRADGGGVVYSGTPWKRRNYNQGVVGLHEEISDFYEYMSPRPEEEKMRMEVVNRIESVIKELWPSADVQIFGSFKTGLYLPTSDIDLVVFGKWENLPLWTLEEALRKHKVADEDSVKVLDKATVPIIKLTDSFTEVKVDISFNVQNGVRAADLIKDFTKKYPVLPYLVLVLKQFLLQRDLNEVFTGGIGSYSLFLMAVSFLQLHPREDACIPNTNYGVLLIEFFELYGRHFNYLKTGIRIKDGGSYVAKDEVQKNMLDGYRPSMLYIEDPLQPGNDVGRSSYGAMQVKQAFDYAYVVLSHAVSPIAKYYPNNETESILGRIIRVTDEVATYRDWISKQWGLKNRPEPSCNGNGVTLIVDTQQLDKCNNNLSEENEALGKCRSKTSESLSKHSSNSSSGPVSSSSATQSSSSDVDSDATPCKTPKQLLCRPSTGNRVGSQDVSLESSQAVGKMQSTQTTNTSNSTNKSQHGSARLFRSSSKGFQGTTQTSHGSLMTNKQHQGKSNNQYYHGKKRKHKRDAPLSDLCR

For `CCOC(=O)c1cnc2ccc(Br)cc2c1Nc1ccccc1C(=O)O` [Compound 26A, 2-[(6-bromo-3-ethoxycarbonyl-4-quinolyl)amino]benzoic acid], the “Inhibition of PAPD5 RNA oligo adenylation” value (from here on “Inhibition”) [1] was “+++” and the ΔTm at 100 µM [2] was 11.1 °C.
In the case of `O=C(O)c1cccn2c(=O)c3cnc4ccc(OC(F)(F)F)cc4c3nc12` [Compound 27A, 14-oxo-7-(trifluoromethoxy)-17,18,19-triazatetracyclooctadeca-(4),1(8),2(7),3(9),5(10),6(17),11,13(18)-octaene-8-carboxylic acid], the “Inhibition” value [1] is reported as 0 and the ΔTm at 100 µM [2] is reported as 2.8 °C.
For `COCCCOc1cc2ncc(C#N)c(Nc3ccccc3C(=O)O)c2cc1OC` [Compound 51A, 2-[[3-cyano-6-methoxy-7-(3-methoxypropoxy)-4-quinolyl]amino]benzoic acid], the “Inhibition” value [1] was “+” and the ΔTm at 100 µM [2] was 7.9 °C.
`NS(=O)(=O)c1cnc2ccc(OC(F)(F)F)cc2c1Nc1ccccc1C(=O)O` [Compound 16A, 2-[[3-sulfamoyl-6-(trifluoromethoxy)-4-quinolyl]amino]benzoic acid] was tested, and the “Inhibition” value [1] was “+++” and the ΔTm at 100 µM [2] was 9.6 °C.
For `CCOC(=O)c1ncn2c1[nH]c(=O)c1cnc3ccc(OC(F)(F)F)cc3c12` [Compound 31A, ethyl 14-oxo-7-(trifluoromethoxy)-17,18,19,20-tetrazatetracycloheptadeca-1(7),2(8),3(9),4(18),5(19),10,12-heptaene-12-carboxylate], the “Inhibition” value [1] was 0 and the ΔTm at 100 µM [2] was 1.8 °C.
For `COc1cccc(Nc2c(S(=O)(=O)N3CCOCC3)cnc3ccc(Cl)cc23)c1C(=O)O` [Compound 79A-INT, 2-[(6-chloro-3-morpholinosulfonyl-4-quinolyl)amino]-6-methoxy-benzoic acid], the ΔTm at 100 µM [2] was 0 °C.
In the case of `CCOC(=O)c1cnc2ccc(OC(F)(F)F)cc2c1Nc1scnc1C(=O)OCC` [Compound 33A, ethyl 5-[[3-ethoxycarbonyl-6-(trifluoromethoxy)-4-quinolyl]amino]thiazole-4-carboxylate], the “Inhibition” value [1] is reported as 0 and the ΔTm at 100 µM [2] is reported as 0.7 °C.
With `COCCCOc1cc2ncc(C#N)c(Nc3cccc(O)c3C(=O)O)c2cc1OC` [Compound 55A, 2-[[3-cyano-6-methoxy-7-(3-methoxypropoxy)-4-quinolyl]amino]-6-hydroxy-benzoic acid] the “Inhibition” value [1] was “+++” and the ΔTm at 100 µM [2] was 13.9 °C.
With `CCOC(=O)c1cnc2ccc(-n3ccc4cc(O)ccc43)cc2c1Nc1ccccc1C(=O)O` [Compound 29A, 2-[[3-ethoxycarbonyl-6-(5-hydroxyindol-1-yl)-4-quinolyl]amino]benzoic acid] the “Inhibition” value [1] was “+++” and the ΔTm at 100 µM [2] was 4.9 °C.
In the case of `CCOC(=O)c1cnc2ccc(OC(F)(F)F)cc2c1Nc1ccccc1C#N` [Compound 25A, ethyl 4-(2-cyanoanilino)-6-(trifluoromethoxy)quinoline-3-carboxylate], the “Inhibition” value [1] is reported as 0 and the ΔTm at 100 µM [2] is reported as 0.1 °C.
With `O=C(O)c1c(O)cccc1Nc1c(S(=O)(=O)N2CCOCC2)cnc2ccc(Br)cc12` [Compound 78A, 2-[(6-bromo-3-morpholinosulfonyl-4-quinolyl)amino]-6-hydroxy-benzoic acid] the “Inhibition” value [1] was “+++” and the ΔTm at 100 µM [2] was 17.1 °C.
`N#Cc1cnc2ccc(OC(F)(F)F)cc2c1Nc1ccccc1C(=O)O` [Compound 15A, 2-[[3-cyano-6-(trifluoromethoxy)-4-quinolyl]amino]benzoic acid] showed a ΔTm at 100 µM [2] of 8.8 °C.
For `COc1cccc(Nc2c(S(=O)(=O)N3CCOCC3)cnc3ccc(Br)cc23)c1C(=O)O` [Compound 78A-INT, 2-[(6-bromo-3-morpholinosulfonyl-4-quinolyl)amino]-6-methoxy-benzoic acid], the “Inhibition” value [1] was 0 and the ΔTm at 100 µM [2] was 1.1 °C.
Work on `Nc1cccc(Nc2c(S(=O)(=O)N3CCOCC3)cnc3ccc(Br)cc23)c1C(=O)O` [Compound 85A-BP, 2-amino-6-[(6-bromo-3-morpholinosulfonyl-4-quinolyl)amino]benzoic acid] yielded a ΔTm at 100 µM [2] of 6.8 °C.
`COCCCOc1cc2ncc(-c3ncco3)c(Nc3ccccc3C(=O)O)c2cc1OC` [Compound 58A, 2-[[6-methoxy-7-(3-methoxypropoxy)-3-oxazol-2-yl-4-quinolyl]amino]benzoic acid] was tested, and the “Inhibition” value [1] was “+” and the ΔTm at 100 µM [2] was 8.5 °C.
In the case of `O=C(O)c1c(O)cccc1Nc1c(-c2ncco2)cnc2ccc(Cl)cc12` [Compound 82A, 2-[(6-chloro-3-oxazol-2-yl-4-quinolyl)amino]-6-hydroxy-benzoic acid], the “Inhibition” value [1] is reported as “+++” and the ΔTm at 100 µM [2] is reported as 13.5 °C.
In the case of `COCCCOc1cc2ncc(C(=O)N3CCOCC3)c(Nc3ccccc3C(=O)O)c2cc1OC` [Compound 53A, 2-[[6-methoxy-7-(3-methoxypropoxy)-3-(morpholine-4-carbonyl)-4-quinolyl]amino]benzoic acid], the “Inhibition” value [1] is reported as “+” and the ΔTm at 100 µM [2] is reported as 5.2 °C.
In the case of `CN(C)C(=O)c1cnc2ccc(OC(F)(F)F)cc2c1Nc1ccccc1C(=O)O` [Compound 12A, 2-[[3-(dimethylcarbamoyl)-6-(trifluoromethoxy)-4-quinolyl]amino]benzoic acid], the “Inhibition” value [1] is reported as “+” and the ΔTm at 100 µM [2] is reported as 6.1 °C.
`CC(=O)Nc1cccc(Nc2c(S(=O)(=O)N3CCOCC3)cnc3ccc(Br)cc23)c1C(=O)O` [Compound 85A, 2-acetamido-6-[(6-bromo-3-morpholinosulfonyl-4-quinolyl)amino]benzoic acid] was tested, and the ΔTm at 100 µM [2] was 0 °C.
With `COc1cccc(Nc2c(S(=O)(=O)N3CCN(C(=O)OCc4ccccc4)CC3)cnc3ccc(Br)cc23)c1C(=O)O` [Compound 93A-INT, 2-[[3-(4-benzyloxycarbonylpiperazin-1-yl)sulfonyl-6-bromo-4-quinolyl]amino]-6-methoxy-benzoic acid] the ΔTm at 100 µM [2] was 0 °C.
`O=c1c2cnc3ccc(OC(F)(F)F)cc3c2[nH]c2ccnn12` [Compound 30A, 6-(trifluoromethoxy)-14,15,16,17-tetrazatetracycloheptadeca-(6),1(7),2(8),3(15),4(9),5(16),10-heptaen-12-one] was tested, and the “Inhibition” value [1] was 0 and the ΔTm at 100 µM [2] was 1.7 °C.
For `O=C(O)c1ccccc1Nc1c(S(=O)(=O)N2CCOCC2)cnc2ccc(Cl)cc12` [Compound 80A, 2-[(6-chloro-3-morpholinosulfonyl-4-quinolyl)amino]benzoic acid], the “Inhibition” value [1] was “+++” and the ΔTm at 100 µM [2] was 16.4 °C.
In the case of `O=C(O)c1cccnc1Nc1c(C(=O)O)cnc2ccc(OC(F)(F)F)cc12` [Compound 28A, 4-[(3-carboxy-2-pyridyl)amino]-6-(trifluoromethoxy)quinoline-3-carboxylic acid], the “Inhibition” value [1] is reported as “+” and the ΔTm at 100 µM [2] is reported as 5.5 °C.
With `CCOC(=O)c1cnc2ccc(OC3CCNCC3)cc2c1Nc1ccccc1C(=O)O` [Compound 19A, 2-[[3-ethoxycarbonyl-6-(4-piperidyloxy)-4-quinolyl]amino]benzoic acid] the “Inhibition” value [1] was 0 and the ΔTm at 100 µM [2] was 0.6 °C.
With `COCCCOc1cc2ncc(C(=O)N(C)C)c(Nc3ccccc3C(=O)O)c2cc1Br` [Compound 57A, 2-[[6-bromo-3-(dimethylcarbamoyl)-7-(3-methoxypropoxy)-4-quinolyl]amino]benzoic acid] the “Inhibition” value [1] was “+++” and the ΔTm at 100 µM [2] was 9.8 °C.
With `NS(=O)(=O)c1cnc2ccc(Cl)cc2c1Nc1ccccc1C(=O)O` [Compound 63A, 2-[(6-chloro-3-sulfamoyl-4-quinolyl)amino]benzoic acid] the “Inhibition” value [1] was “+++” and the ΔTm at 100 µM [2] was 9.3 °C.
In the case of `CCOC(=O)c1cnc2ccc(OC(F)(F)F)cc2c1Nc1ncccc1C(=O)O` [Compound 1A, 2-[[3-ethoxycarbonyl-6-(trifluoromethoxy)-4-quinolyl]amino]pyridine-3-carboxylic acid], the “Inhibition” value [1] is reported as 0 and the ΔTm at 100 µM [2] is reported as 0.4 °C.
In the case of `O=C(O)c1ccccc1Nc1c(S(=O)(=O)N2CCOCC2)cnc2ccc(Br)cc12` [Compound 70A, 2-[(6-bromo-3-morpholinosulfonyl-4-quinolyl)amino]benzoic acid], the “Inhibition” value [1] is reported as “+++” and the ΔTm at 100 µM [2] is reported as 13.7 °C.
`CCOC(=O)c1cnc2ccc(OC(F)(F)F)cc2c1Nc1ccccc1-c1nn[nH]n1` [Compound 10A, ethyl 4-[2-(2H-tetrazol-5-yl)anilino]-6-(trifluoromethoxy)quinoline-3-carboxylate] was tested, and the “Inhibition” value [1] was “+” and the ΔTm at 100 µM [2] was 1 °C.
In the case of `O=C(O)c1ccccc1Nc1c(C(=O)N2CCOCC2)cnc2ccc(OC(F)(F)F)cc12` [Compound 13A, 2-[[3-(morpholine-4-carbonyl)-6-(trifluoromethoxy)-4-quinolyl]amino]benzoic acid], the “Inhibition” value [1] is reported as “+” and the ΔTm at 100 µM [2] is reported as 5.6 °C.
`NS(=O)(=O)c1cnc2ccc(-c3cccc4ncoc34)cc2c1Nc1ccccc1C(=O)O` [Compound 64A, 2-[[6-(1,3-benzoxazol-7-yl)-3-sulfamoyl-4-quinolyl]amino]benzoic acid] was tested, and the ΔTm at 100 µM [2] was 6.3 °C.
For `COCCCOc1cc2ncc(C#N)c(-n3ccc(=O)c(C(=O)O)c3)c2cc1OC` [Compound 56A, 1-[3-cyano-6-methoxy-7-(3-methoxypropoxy)-4-quinolyl]-4-oxo-pyridine-3-carboxylic acid], the “Inhibition” value [1] was 0 and the ΔTm at 100 µM [2] was 0.4 °C.
In the case of `CCOC(=O)c1cnc2ccc(-c3cccc4[nH]ccc34)cc2c1Nc1ccccc1C(=O)O` [Compound 23A, 2-[[3-ethoxycarbonyl-6-(1H-indol-4-yl)-4-quinolyl]amino]benzoic acid], the “Inhibition” value [1] is reported as “+++” and the ΔTm at 100 µM [2] is reported as 4.6 °C.
For `O=C(O)c1c(Nc2c(S(=O)(=O)N3CCOCC3)cnc3ccc(Br)cc23)ccc(Br)c1O` [Compound 78A-BR, 3-bromo-6-[(6-bromo-3-morpholinosulfonyl-4-quinolyl)amino]-2-hydroxy-benzoic acid], the “ΔTm 100 μM” value [2] was “fluorescent”.
